The record followed here is ChEMBL document CHEMBL4007427, “Inhibition of the Aldehyde Dehydrogenase 1/2 Family by Psoralen and Coumarin Derivatives” (J Med Chem, 2017).

Assay [1] deals with T1, Aldehyde dehydrogenase 1A1 (Homo sapiens, UniProt P00352).
T1 sequence (P00352 whole entry): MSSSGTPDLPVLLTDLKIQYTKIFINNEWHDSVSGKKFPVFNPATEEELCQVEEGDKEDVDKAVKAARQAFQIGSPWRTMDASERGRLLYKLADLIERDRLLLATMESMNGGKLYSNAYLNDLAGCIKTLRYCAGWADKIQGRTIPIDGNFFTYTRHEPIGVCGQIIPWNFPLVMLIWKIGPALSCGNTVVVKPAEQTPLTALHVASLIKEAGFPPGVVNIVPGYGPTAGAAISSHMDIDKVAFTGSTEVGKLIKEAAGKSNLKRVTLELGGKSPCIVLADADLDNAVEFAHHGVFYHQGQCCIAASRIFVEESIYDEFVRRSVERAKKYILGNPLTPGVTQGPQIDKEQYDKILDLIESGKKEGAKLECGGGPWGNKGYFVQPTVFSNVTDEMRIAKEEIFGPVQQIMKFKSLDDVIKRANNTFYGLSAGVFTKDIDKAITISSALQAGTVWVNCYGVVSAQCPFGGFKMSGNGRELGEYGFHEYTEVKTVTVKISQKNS
Nature of the assay: Uncompetitive inhibition of full length recombinant human ALDH1A1 expressed in Escherichia coli BL21(DE3) using propionaldehyde as substrate in presence of varying levels NAD+ by Lineweaver-Burk plot analysis.

The target in assay [2] is T2, Aldehyde dehydrogenase X, mitochondrial (Homo sapiens) (UniProt P30837).
T2 sequence (whole entry): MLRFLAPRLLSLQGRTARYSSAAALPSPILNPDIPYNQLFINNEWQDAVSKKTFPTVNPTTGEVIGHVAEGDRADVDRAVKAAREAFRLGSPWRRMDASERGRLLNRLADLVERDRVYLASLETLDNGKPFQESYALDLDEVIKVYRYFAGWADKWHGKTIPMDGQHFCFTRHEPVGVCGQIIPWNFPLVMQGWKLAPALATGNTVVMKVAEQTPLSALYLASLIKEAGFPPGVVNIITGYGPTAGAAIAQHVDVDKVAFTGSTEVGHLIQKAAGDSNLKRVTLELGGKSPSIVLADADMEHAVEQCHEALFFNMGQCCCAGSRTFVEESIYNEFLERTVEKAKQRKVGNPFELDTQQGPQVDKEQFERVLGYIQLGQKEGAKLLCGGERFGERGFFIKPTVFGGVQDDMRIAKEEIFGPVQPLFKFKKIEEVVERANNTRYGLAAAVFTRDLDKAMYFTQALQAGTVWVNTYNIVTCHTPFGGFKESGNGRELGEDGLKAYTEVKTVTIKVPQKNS
Nature of the assay: Inhibition of full length recombinant human ALDH1B1 expressed in Escherichia coli TunerDE3 assessed as reduction in dehydrogenase activity by measuring NAD(P)H level preincubated for 2 mins followed by addition of propionaldehyde as substrate in presence of NAD+ by spectrophotometric method relative to control.

Assay [3] has as its target T3, Retinal dehydrogenase 2 (Homo sapiens) (UniProt O94788).
T3 sequence (whole entry): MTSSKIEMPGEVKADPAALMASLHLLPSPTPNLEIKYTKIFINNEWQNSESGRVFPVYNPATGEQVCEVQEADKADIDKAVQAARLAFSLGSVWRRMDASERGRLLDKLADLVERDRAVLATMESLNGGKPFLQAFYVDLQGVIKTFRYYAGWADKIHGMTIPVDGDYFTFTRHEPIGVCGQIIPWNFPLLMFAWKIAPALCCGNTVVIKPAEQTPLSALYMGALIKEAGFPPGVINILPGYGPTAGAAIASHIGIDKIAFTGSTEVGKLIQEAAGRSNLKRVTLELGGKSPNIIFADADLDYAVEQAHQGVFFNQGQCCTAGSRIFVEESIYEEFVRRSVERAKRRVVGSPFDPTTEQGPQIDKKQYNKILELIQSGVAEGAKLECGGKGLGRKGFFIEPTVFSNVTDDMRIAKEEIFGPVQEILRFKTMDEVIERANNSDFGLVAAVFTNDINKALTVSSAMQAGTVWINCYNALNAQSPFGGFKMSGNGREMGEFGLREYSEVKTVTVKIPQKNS
Nature of the assay: Inhibition of full length recombinant human ALDH1A2 expressed in Escherichia coli BL21(DE3) assessed as reduction in dehydrogenase activity by measuring NAD(P)H level preincubated for 2 mins followed by addition of propionaldehyde as substrate in presence of NAD+ by spectrophotometric method relative to control.

As to `Cc1oc2cc3oc(=O)c(CCC(=O)N4CCCCC4)c(C)c3cc2c1C`, the Ki (in general, a measure of affinity in units of concentration, obtained from inhibition or displacement) in assay [1] was 0.17 µM.
As for `Cc1oc2cc3oc(=O)c(C)c(C)c3cc2c1C`, the Imax in assay [2] and in assay [3] was 60% in each case.
